Experimental data from the supplement of paper PMC11061612.

How the values were obtained:
[1] = test system: KP-1N (Pancreatic Carcinoma); assay: combination Emax (second highest fraction inhibited in the dose matrix, 72 h); higher = more inhibition; extreme values may be limits of the assay
Outline: (§1)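 Bliss excess equals the observed combination effect minus the expected value EA + EB − EA·EB, where EA and EB are the effects of each agent alone. Combination Emax is the second-highest inhibition within the matrix. Inhibition was scaled from CellTiter-Glo 2.0 luminescence, with 0 set by vehicle wells and 1 by blank wells, after 72 hours of two-drug dosing of cells plated in 1536-well plates.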

42-MG-BA (Glioblastoma) = assay: as above
Outline: as §1

[2] = test system: HCC1806 (Breast Carcinoma); assay: as above
Outline: as §1

NOS-1 (Osteosarcoma) = assay: as above
Outline: as §1

[3] = test system: HCC-78 (Lung Adenocarcinoma); assay: as above
Outline: as §1

[4] = test system: EC-GI-10 (Esophageal Squamous Cell Carcinoma); assay: as above
Outline: as §1

[5] = test system: Ramos-2G6-4C10 (Burkitt's Lymphoma); assay: as above
Outline: as §1

[6] = test system: SNU-5 (Gastric Carcinoma); assay: as above
Outline: as §1

[7] = test system: UM-UC-3 (Bladder Carcinoma); assay: as above
Outline: as §1

[8] = test system: LB831-BLC (Bladder Carcinoma); assay: as above
Outline: as §1

[9] = test system: RO82-W-1 (Thyroid Gland Carcinoma); assay: as above
Outline: as §1

[10] = test system: CAL-148 (Breast Carcinoma); assay: as above
Outline: as §1

[11] = test system: KURAMOCHI (Ovarian Carcinoma); assay: as above
Outline: as §1

NB10 (Neuroblastoma) = assay: as above
Outline: as §1

[12] = test system: HCC-78 (Lung Adenocarcinoma); assay: Bliss excess, mean over the matrix (fraction); higher = more synergy
Outline: as §1

AGS (Gastric Carcinoma) = assay: as above
Outline: as §1

[13] = test system: SNU-5 (Gastric Carcinoma); assay: as above
Outline: as §1

[14] = test system: LB831-BLC (Bladder Carcinoma); assay: as above
Outline: as §1

[15] = test system: Calu-3 (Lung Adenocarcinoma); assay: as above
Outline: as §1

[16] = test system: LNCaP-Clone-FGC (Prostate Carcinoma); assay: as above
Outline: as §1

Compound	combination Emax [1]	combination Emax (42-MG-BA (Glioblastoma))	combination Emax [2]	combination Emax (NOS-1 (Osteosarcoma))	combination Emax [3]	combination Emax [4]	combination Emax [5]	combination Emax [6]	combination Emax [7]	combination Emax [8]	combination Emax [9]	combination Emax [10]	combination Emax [11]	combination Emax (NB10 (Neuroblastoma))	Bliss excess [12]	Bliss excess (AGS (Gastric Carcinoma))	Bliss excess [13]	Bliss excess [14]	Bliss excess [15]	Bliss excess [16]
NC1(C(=O)N[C@@H](CCO)c2ccc(Cl)cc2)CCN(c2ncnc3[nH]ccc23)CC1 [Capivasertib] + COc1nnc2ccc(N3CCC(c4ccc(OCCN5CCN(C)C(=O)[C@H]5C)cc4)CC3)nn12 [AZD5153] (first compound max 10 µM, 7x7, partner max 1 µM)	0.621	0.813	0.556	0.806	0.389	0.543	0.997	0.564	0.411	0.608	0.362	1	0.776	0.527	0.0193	0.0228	0.0149	0.0335	0.0283	-0.0071
CN(C)CCCOc1ccc(-c2ccc3ncc4c(c3c2)n(C2CCOCC2)c(=O)n4C)cn1 [AZD0156] + CCN(CCO)CCCOc1ccc2c(Nc3cc(CC(=O)Nc4cccc(F)c4)[nH]n3)ncnc2c1 [AZD2811] (first compound max 1 µM, 7x7, partner max 1 µM)	0.293	0.444	0.124	0.119	0.159	0.471	0.528	0.162	0.155	0.0797	0.308	0.935	0.115	0.315	-0.0058	-0.0047	0.0036	-0.0356	-0.0295	-0.0257
COc1nnc2ccc(N3CCC(c4ccc(OCCN5CCN(C)C(=O)[C@H]5C)cc4)CC3)nn12 [AZD5153] + CC1(C)CCC(CN2CCN(c3ccc(C(=O)NS(=O)(=O)c4ccc(NCC5CCOCC5)c([N+](=O)[O-])c4)c(Oc4cnc5[nH]ccc5c4)c3)CC2)=C(c2ccc(Cl)cc2)C1 [Venetoclax] (first compound max 1 µM, 7x7, partner max 1 µM)	0.481	0.56	0.645	0.728	0.411	0.251	0.589	0.469	0.278	0.499	0.407	0.557	0.747	0.527	-0.0448	-0.0619	-0.0754	-0.0627	-0.0258	-0.0468
Cc1cc2ncnn2cc1Nc1ncc2c(n1)n(C1CCOCC1)c(=O)n2C [AZD7648] + C[C@@H]1COCCN1C2=NC(=NC(=C2)C3(CC3)[S@](=N)(=O)C)C4=C5C=CNC5=NC=C4 [AZD6738] (first compound max 10 µM, 7x7, partner max 10 µM)	0.252	0.692	0.928	0.351	0.635	0.517	0.944	0.931	0.41	0.3	0.478	0.828	0.567	0.801	-0.0011	0.0015	0.0337	0.0485	0.0012	-0.0069
C[C@@H](c1ccc2nccn2c1)n1nnc2ncc(-c3cnn(C)c3)nc21 [Savolitinib] + CC1(C)CCC(CN2CCN(c3ccc(C(=O)NS(=O)(=O)c4ccc(NCC5CCOCC5)c([N+](=O)[O-])c4)c(Oc4cnc5[nH]ccc5c4)c3)CC2)=C(c2ccc(Cl)cc2)C1 [Venetoclax] (first compound max 1 µM, 7x7, partner max 1 µM)	0.13	0.166	0.142	0.0631	0.145	0.116	0.169	0.847	0.143	0.179	0.169	0.143	0.15	0.149	-0.0514	-0.0729	-0.0585	-0.0978	-0.0347	-0.0593
CN(C)CCCOc1ccc(-c2ccc3ncc4c(c3c2)n(C2CCOCC2)c(=O)n4C)cn1 [AZD0156] + C=CCn1c(=O)c2cnc(Nc3ccc(N4CCN(C)CC4)cc3)nc2n1-c1cccc(C(C)(C)O)n1 [AZD1775] (first compound max 1 µM, partner max 1 µM)	0.471	0.29	0.901	0.247	0.313	0.849	0.995	0.56	0.264	0.388	0.38	0.966	0.678	0.586	0.0011	-0.0517	-0.0705	-0.104	-0.0378	-0.045
CN(CCO)CC[C@H](CSc1ccccc1)Nc1ccc(S(=O)(=O)NC(=O)c2ccc(N3CCC([C@@H](O)c4ccccc4-c4ccc(Cl)cc4)CC3)cc2)cc1S(=O)(=O)C(F)(F)F [AZD4320] + CCN(CCO)CCCOc1ccc2c(Nc3cc(CC(=O)Nc4cccc(F)c4)[nH]n3)ncnc2c1 [AZD2811] (first compound max 1 µM, 7x7, partner max 1 µM)	0.0993	0.831	0.201	0.667	0.2	0.401	0.909	0.45	0.226	0.526	0.46	1	0.327	0.408	-0.0361	0.192	-0.0115	0.0234	-0.0142	-0.0105
COc1cccc2c1C(=O)c1c(O)c3c(c(O)c1C2=O)C[C@@](O)(C(=O)CO)C[C@@H]3O[C@H]1C[C@H](N)[C@H](O)[C@H](C)O1 [Doxorubicin] + Cc1cc2ncnn2cc1Nc1ncc2c(n1)n(C1CCOCC1)c(=O)n2C [AZD7648] (first compound max 1 µM, 7x7, partner max 10 µM)	0.675	0.925	0.919	0.369	0.751	0.693	0.951	0.823	0.802	0.871	0.628	1	0.546	0.863	0.049	0.109	0.007	0.0858	-0.0006	0.0417
COc1nnc2ccc(N3CCC(c4ccc(OCCN5CCN(C)C(=O)[C@H]5C)cc4)CC3)nn12 [AZD5153] + CN(CC[C@H](CSC1=CC=CC=C1)NC2=C(C=C(C=C2)S(=O)(=O)NC(=O)C3=CC=C(C=C3)N4CCC(CC4)[C@H](C5=CC=CC=C5C6=CC=C(C=C6)Cl)O)S(=O)(=O)C(F)(F)F)CCO [AZD4320] (first compound max 1 µM, 7x7, partner max 1 µM)	0.53	0.868	0.588	0.936	–	0.275	–	0.506	–	–	–	–	–	–	–	-0.03	0.0566	–	–	0.0557
CC(=O)c1c(C)c2cnc(Nc3ccc(N4CCNCC4)cn3)nc2n(C2CCCC2)c1=O [Palbociclib] + CN(CC[C@H](CSC1=CC=CC=C1)NC2=C(C=C(C=C2)S(=O)(=O)NC(=O)C3=CC=C(C=C3)N4CCC(CC4)[C@H](C5=CC=CC=C5C6=CC=C(C=C6)Cl)O)S(=O)(=O)C(F)(F)F)CCO [AZD4320] (first compound max 10 µM, 7x7, partner max 1 µM)	0.27	0.511	0.442	0.952	–	0.493	–	0.334	–	–	–	–	–	–	–	-0.008	-0.0446	–	–	-0.0902
C[C@@H](c1ccc2nccn2c1)n1nnc2ncc(-c3cnn(C)c3)nc21 [Savolitinib] + CN(CC[C@H](CSC1=CC=CC=C1)NC2=C(C=C(C=C2)S(=O)(=O)NC(=O)C3=CC=C(C=C3)N4CCC(CC4)[C@H](C5=CC=CC=C5C6=CC=C(C=C6)Cl)O)S(=O)(=O)C(F)(F)F)CCO [AZD4320] (first compound max 1 µM, 7x7, partner max 1 µM)	0.175	0.222	0.436	0.506	–	0.27	–	1	–	–	–	–	–	–	–	-0.0353	0.029	–	–	-0.0205
C=CCn1c(=O)c2cnc(Nc3ccc(N4CCN(C)CC4)cc3)nc2n1-c1cccc(C(C)(C)O)n1 [AZD1775] + C[C@@H]1COCCN1C2=NC(=NC(=C2)C3(CC3)[S@](=N)(=O)C)C4=C5C=CNC5=NC=C4 [AZD6738] (first compound max 1 µM, partner max 10 µM)	0.397	0.763	0.961	0.622	0.756	0.943	1	0.934	0.682	0.72	0.445	1	0.743	0.879	0.0101	0.113	–	0.0042	-0.0181	-0.0387
CCc1c2c(nc3ccc(O)cc13)-c1cc3c(c(=O)n1C2)COC(=O)[C@]3(O)CC [SN-38] + O=C(c1cc(Cc2n[nH]c(=O)c3ccccc23)ccc1F)N1CCN(C(=O)C2CC2)CC1 [Olaparib] (first compound max 0.3 µM, 7x7, partner max 10 µM)	0.645	1	0.974	0.134	0.898	–	0.996	–	0.985	0.85	0.469	0.96	0.651	0.866	0.0106	0.0897	–	0.0617	0.0909	–
